The results in this text go back to patent US20230150978A1, “QUINAZOLINONE DERIVATIVES AND USES THEREOF FOR TREATING A CANCER” (ENYO PHARMA, priority 2020, published 2023).

pEC50: −log10 of the molar value.

In general, pEC50 refers to −log10 of the EC50, conventionally taken in molar units. A word on the melting point: it is the temperature of the solid-liquid transition.

Data set [1] has as its system Calreticulin. Briefly: Calreticulin release (ER to plasma membrane translocation) screen, Nano-Glo HiBiT extracellular detection. The conditions noted are these: Homo sapiens, MDA-MB-231, MDA-MB-231 cells stably expressing Calreticulin-HiBiT; extracellular luminescence; read-out: CalR EC50. Format: cell-based. Background: With HiBiT, luminescence reflects the tagged protein that the partner subunit can reach.

For data set [2], the system named is HMGB1. Put plainly: HMGB1 release screen, Nano-Glo HiBiT extracellular detection. Format: cell-based. As to conditions: Homo sapiens, MDA-MB-231, MDA-MB-231 cells stably expressing HMGB1-HiBiT; extracellular luminescence.

The compound `CC1(C)CN(Cc2nc3ccc(Cl)cc3c(=O)[nH]2)c2ccccc21` [Ex. #40, 6-chloro-2-[(3,3-dimethylindolin-1-yl)methyl]-3H-quinazolin-4-one] registered a melting point of 163 to 176 °C. In addition, the pEC50 in data set [1] was 6.03. Besides, in data set [2], the negative logarithm of the EC50 (pEC50) was 5.90.

Compound `COc1cccc2c1N(Cc1nc3ccc(Cl)cc3c(=O)[nH]1)CCC2` [Ex. #54, 6-chloro-2-[(8-methoxy-3,4-dihydro-2H-quinolin-1-yl)methyl]-3H-quinazolin-4-one] registered a melting point of 183 to 194 °C. Also, the pEC50 in data set [1] is 5.75. Also, in data set [2], the pEC50 is 5.51.

`COc1cccc2c1CCN(Cc1nc3ccc(Cl)cc3c(=O)[nH]1)C2` [Ex. #58, 6-chloro-2-[(5-methoxy-3,4-dihydro-1H-isoquinolin-2-yl)methyl]-3H-quinazolin-4-one] yielded a melting point of 205 to 212 °C. The pEC50 in data set [1] was 6.28. In addition, the pEC50 in data set [2] was 5.32.

Regarding `COc1cc2c(=O)[nH]c(CN3CC(C)(C)c4ccccc43)nc2cc1F` [Ex. #77, 2-[(3,3-dimethylindolin-1-yl)methyl]-7-fluoro-6-methoxy-3H-quinazolin-4-one], the melting point was in the range of 194 to 209 °C. In data set [1], the pEC50 was 6.82. In data set [2], this compound showed a pEC50 of 6.82.

For `COc1cc2c(=O)[nH]c(CN3CCc4ccccc43)nc2cn1` [Ex. #78, 2-(indolin-1-ylmethyl)-6-methoxy-3H-pyrido[3,4-d]pyrimidin-4-one], the melting point is 215 to 230 °C. In addition, the pEC50 in data set [1] is 5.61. In data set [2], the pEC50 is 5.49.

`COc1cc2c(=O)[nH]c(CN3CC(C)(C)c4ccccc43)nc2cn1` [Ex. #79, 2-[(3,3-dimethylindolin-1-yl)methyl]-6-methoxy-3H-pyrido[3,4-d]pyrimidin-4-one]: the melting point fell in the range of 145 to 167 °C. Further, in data set [1], the pEC50 was 6.10. Besides, in data set [2], the pEC50 was 6.10.

The compound `CN(C)c1cc2c(=O)[nH]c(CN3CCc4ccccc43)nc2cc1F` [Ex. #80, 6-(dimethylamino)-7-fluoro-2-(indolin-1-ylmethyl)-3H-quinazolin-4-one] showed a melting point of 200 to 223 °C. In addition, in data set [1], the pEC50 is 6.66. Besides, the pEC50 in data set [2] is 6.65.

For `CC(C)c1ccc2nc(CN3CCc4ccccc43)[nH]c(=O)c2c1` [Ex. #81, 2-(indolin-1-ylmethyl)-6-isopropyl-3H-quinazolin-4-one], the melting point fell in the range of 168 to 185 °C. The pEC50 in data set [1] was 7.10. Besides, in data set [2], the pEC50 was 6.39.

For the compound `O=c1[nH]c(CN2CCc3ccccc32)nc2ccc(F)cc12` [Ex. #88, 6-fluoro-2-(indolin-1-ylmethyl)-3H-quinazolin-4-one], the melting point was 184 to 196 °C. In addition, the pEC50 in data set [1] is 5.12. Besides, the pEC50 in data set [2] was 5.33.

With `CC(C)(C)OC(=O)NCCCCOc1ccc2nc(CN3CCc4ccccc43)[nH]c(=O)c2c1` [Ex. #90, tert-butyl N-[4-[[2-(indolin-1-ylmethyl)-4-oxo-3H-quinazolin-6-yl]oxy]butyl]carbamate], the melting point is 167 to 181 °C. For the same compound, the pEC50 in data set [1] is 5.26. The pEC50 in data set [2] was 5.06.

As to `CN(C)c1cc2c(=O)[nH]c(CN3CC(C)(C)c4ccccc43)nc2cn1` [Ex. #92, 6-(dimethylamino)-2-[(3,3-dimethylindolin-1-yl)methyl]-3H-pyrido[3,4-d]pyrimidin-4-one], the melting point lay within 194 to 211 °C. For the same compound, the pEC50 in data set [1] was 7.01. This compound had a negative-log EC50 (pEC50) in data set [2] of 6.85.

Turning to `CC1(C)CN(Cc2nc3ccc(C#N)cc3c(=O)[nH]2)c2ccccc21` [Ex. #95, 2-[(3,3-dimethylindolin-1-yl)methyl]-4-oxo-3H-quinazoline-6-carbonitrile], the melting point was 187 to 197 °C. In addition, the negative-log EC50 (pEC50) in data set [1] was 5.00. Moreover, the pEC50 in data set [2] is 4.94.

The compound `COCCCOc1ccc2nc(CN3CC(C)(C)c4ccccc43)[nH]c(=O)c2c1` [Ex. #96, 2-[(3,3-dimethylindolin-1-yl)methyl]-6-(3-methoxypropoxy)-3H-quinazolin-4-one] came in with a melting point of 155 to 165 °C. Besides, in data set [1], the pEC50 is 5.01. The pEC50 in data set [2] is 4.97.

`CC1(C)CN(Cc2nc3cc4c(cc3c(=O)[nH]2)OCO4)c2ccccc21` [Ex. #119, 6-[(3,3-dimethylindolin-1-yl)methyl]-7H-[1,3]dioxolo[4,5-g]quinazolin-8-one] yielded a melting point of 199 to 221 °C. The pEC50 in data set [1] was 5.21. In data set [2], this compound had a pEC50 of 5.12.

`COc1ccc2nc(CN3CCc4ccccc4C3)[nH]c(=O)c2c1` [Ex. #122, 2-(3,4-dihydro-1H-isoquinolin-2-ylmethyl)-6-methoxy-3H-quinazolin-4-one] showed a melting point of 174 to 179 °C. Moreover, the pEC50 in data set [1] is 5.78. The pEC50 in data set [2] is 4.90.

On to `COc1ccc2nc(CN3CCc4c(cccc4C(F)(F)F)C3)[nH]c(=O)c2c1` [Ex. #125, 6-methoxy-2-[[5-(trifluoromethyl)-3,4-dihydro-1H-isoquinolin-2-yl]methyl]-3H-quinazolin-4-one], for which the melting point is 196 to 206 °C. Also, the pEC50 in data set [1] was 5.01. This compound had a pEC50 in data set [2] of 4.80.

`COc1cccc2c1CN(Cc1nc3ccc(Cl)cc3c(=O)[nH]1)CC2` [Ex. #130, 6-chloro-2-[(8-methoxy-3,4-dihydro-1H-isoquinolin-2-yl)methyl]-3H-quinazolin-4-one] gave a melting point of 195 to 203 °C. For the same compound, the pEC50 in data set [1] was 5.04. This compound also showed a negative logarithm of the EC50 (pEC50) in data set [2] of 4.82.

The compound `COc1ccc2nc(CN3CCc4c(N)cccc4C3)[nH]c(=O)c2c1` [Ex. #133, 2-[(5-amino-3,4-dihydro-1H-isoquinolin-2-yl)methyl]-6-methoxy-3H-quinazolin-4-one] gave a melting point of 211 to 233 °C. Besides, in data set [1], the pEC50 is 5.09. The pEC50 in data set [2] is 4.85.
